{
  "source": "patent US20150050299A1",
  "about": "“METHODS FOR ENHANCING IMMUNE RESPONSE” (priority 2010, published 2015)",
  "key": {"[1]": {"test_system": "squamous cell carcinomas (SCCs)", "format": "in vivo", "method": "The combination therapy of polyamine biosynthesis/uptake inhibition was tested against the K6/ODC transgenic mouse murine squamous cell carcinoma (SCC) model recently described.^98 The K6/ODC model was developed to assess whether ODC overexpression was a contributing cause, or an effect of malignant transformation. […] While most skin tumorigenesis models yielded benign squamous papillomas as the predominant tumor type, when the K6/ODC transgene was expressed on the FVB/N strain background, the majority of tumors that developed were aggressive squamous cell carcinomas. These SCCs appeared as early as 5 weeks after treatment and in high multiplicities (up to four tumors per mouse), making this a very efficient model for SCC induction. Using this model, we were thus able to conclude that over-expression of ODC is a sufficient condition for tumor promotion in mouse skin.^99\nWe conducted an in vivo anti-tumor trial of DFMO combined with either the D-C16-acyl Lys-spm conjugate AMXT 1501 (FIG. 4) or the L-C16-alkyl AMXT 1569 analog (FIG. 5) in the K6/ODC SCC model.\nThe concentration of AMXT 1501 was 14 μg/ml, or an average daily dose of ˜50-65 μg (equivalent to ˜3 mg/kg/d). […] It is expected that great improvements in the oral bioavailability of AMXT 1501 would result from insightful drug formulation."}, "[2]": {"biological_target": "human TLR4 (Homo sapiens, UniProt O00206+Q9Y6Y9)", "sequence (O00206 24-839)": "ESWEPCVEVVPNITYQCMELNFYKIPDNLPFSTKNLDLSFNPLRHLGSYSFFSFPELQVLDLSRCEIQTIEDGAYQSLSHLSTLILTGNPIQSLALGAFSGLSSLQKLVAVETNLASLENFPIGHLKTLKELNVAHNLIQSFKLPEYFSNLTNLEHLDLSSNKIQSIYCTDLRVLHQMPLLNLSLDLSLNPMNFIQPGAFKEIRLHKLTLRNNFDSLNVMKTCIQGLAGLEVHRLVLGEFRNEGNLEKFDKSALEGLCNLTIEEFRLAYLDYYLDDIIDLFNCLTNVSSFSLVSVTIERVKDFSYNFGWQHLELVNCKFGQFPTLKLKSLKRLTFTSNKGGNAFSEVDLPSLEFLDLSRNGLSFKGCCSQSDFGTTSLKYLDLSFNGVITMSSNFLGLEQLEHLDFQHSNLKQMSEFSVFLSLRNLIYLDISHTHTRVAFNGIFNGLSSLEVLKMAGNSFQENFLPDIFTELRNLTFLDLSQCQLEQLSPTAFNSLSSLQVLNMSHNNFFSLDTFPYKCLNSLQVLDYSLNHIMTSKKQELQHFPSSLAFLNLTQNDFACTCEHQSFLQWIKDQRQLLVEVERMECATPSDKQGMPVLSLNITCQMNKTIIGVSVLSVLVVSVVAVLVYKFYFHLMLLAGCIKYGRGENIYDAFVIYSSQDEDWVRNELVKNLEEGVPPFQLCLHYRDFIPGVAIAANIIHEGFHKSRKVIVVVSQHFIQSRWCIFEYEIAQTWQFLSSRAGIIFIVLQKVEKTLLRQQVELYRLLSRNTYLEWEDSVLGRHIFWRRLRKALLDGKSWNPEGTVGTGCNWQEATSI", "sequence (Q9Y6Y9 17-160 limits assumed)": "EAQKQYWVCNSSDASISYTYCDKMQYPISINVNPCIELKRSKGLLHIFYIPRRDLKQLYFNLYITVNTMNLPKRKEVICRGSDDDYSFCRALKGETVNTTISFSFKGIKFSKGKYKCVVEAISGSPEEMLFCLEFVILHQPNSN", "assay": "Toll-Like Receptor (TLR) screening assay, TLR4", "format": "cell-based", "details": "10 μM; control LPS"}, "[3]": {"biological_target": "T1, human TLR7 (Homo sapiens, UniProt Q9NYK1)", "T1 sequence (Q9NYK1 27-1049)": "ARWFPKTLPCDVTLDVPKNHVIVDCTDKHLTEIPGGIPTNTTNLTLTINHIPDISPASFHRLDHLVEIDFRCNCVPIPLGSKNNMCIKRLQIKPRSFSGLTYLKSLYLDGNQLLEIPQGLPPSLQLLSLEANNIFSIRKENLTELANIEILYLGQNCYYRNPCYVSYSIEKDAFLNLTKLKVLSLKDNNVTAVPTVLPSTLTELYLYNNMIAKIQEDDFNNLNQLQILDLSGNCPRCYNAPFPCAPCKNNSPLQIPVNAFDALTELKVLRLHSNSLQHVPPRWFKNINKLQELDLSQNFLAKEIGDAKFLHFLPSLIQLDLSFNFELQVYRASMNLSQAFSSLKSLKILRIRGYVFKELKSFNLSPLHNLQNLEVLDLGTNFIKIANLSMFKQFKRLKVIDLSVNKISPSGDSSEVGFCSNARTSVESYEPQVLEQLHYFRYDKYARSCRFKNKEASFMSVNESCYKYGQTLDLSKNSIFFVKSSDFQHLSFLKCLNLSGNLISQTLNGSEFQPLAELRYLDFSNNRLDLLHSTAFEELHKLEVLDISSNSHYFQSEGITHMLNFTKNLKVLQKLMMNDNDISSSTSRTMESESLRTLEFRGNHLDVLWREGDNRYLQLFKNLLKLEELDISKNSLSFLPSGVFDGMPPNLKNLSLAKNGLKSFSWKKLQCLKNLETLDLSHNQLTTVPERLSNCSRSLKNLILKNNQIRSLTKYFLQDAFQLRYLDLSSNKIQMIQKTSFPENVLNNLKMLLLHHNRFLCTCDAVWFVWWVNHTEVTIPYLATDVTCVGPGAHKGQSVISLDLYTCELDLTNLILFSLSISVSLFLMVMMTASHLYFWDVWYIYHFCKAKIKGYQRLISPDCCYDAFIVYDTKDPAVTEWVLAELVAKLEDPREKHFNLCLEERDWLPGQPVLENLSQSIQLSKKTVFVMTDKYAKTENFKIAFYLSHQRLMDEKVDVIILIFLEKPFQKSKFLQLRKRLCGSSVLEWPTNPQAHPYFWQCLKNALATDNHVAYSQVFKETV", "assay": "Toll-Like Receptor (TLR) screening assay, TLR7", "format": "cell-based", "details": "10 μM"}, "[4]": {"test_system": "human toll-like receptors (TLR)", "assay": "Toll-like receptor test, overall statement", "format": "cell-based", "details": "10 μM", "description": "While the role of HMGB1 in cancer biology is complex, the influence of spermine on this danger signaling biomolecule is well established. […] It could be that the tumor's propensity to secrete higher concentrations of spermine allow them to hide from the immune system by negating HMGB1 ability to stimulate an immune response. Therefore, the balance between pro-immune effects of HMGB1 and the counter-immune effects of spermine mediated through this pathway may be shifted by using PBT."}, "[5]": {"biological_target": "T2, human TLR3 (Homo sapiens, UniProt O15455)", "T2 sequence (O15455 24-904)": "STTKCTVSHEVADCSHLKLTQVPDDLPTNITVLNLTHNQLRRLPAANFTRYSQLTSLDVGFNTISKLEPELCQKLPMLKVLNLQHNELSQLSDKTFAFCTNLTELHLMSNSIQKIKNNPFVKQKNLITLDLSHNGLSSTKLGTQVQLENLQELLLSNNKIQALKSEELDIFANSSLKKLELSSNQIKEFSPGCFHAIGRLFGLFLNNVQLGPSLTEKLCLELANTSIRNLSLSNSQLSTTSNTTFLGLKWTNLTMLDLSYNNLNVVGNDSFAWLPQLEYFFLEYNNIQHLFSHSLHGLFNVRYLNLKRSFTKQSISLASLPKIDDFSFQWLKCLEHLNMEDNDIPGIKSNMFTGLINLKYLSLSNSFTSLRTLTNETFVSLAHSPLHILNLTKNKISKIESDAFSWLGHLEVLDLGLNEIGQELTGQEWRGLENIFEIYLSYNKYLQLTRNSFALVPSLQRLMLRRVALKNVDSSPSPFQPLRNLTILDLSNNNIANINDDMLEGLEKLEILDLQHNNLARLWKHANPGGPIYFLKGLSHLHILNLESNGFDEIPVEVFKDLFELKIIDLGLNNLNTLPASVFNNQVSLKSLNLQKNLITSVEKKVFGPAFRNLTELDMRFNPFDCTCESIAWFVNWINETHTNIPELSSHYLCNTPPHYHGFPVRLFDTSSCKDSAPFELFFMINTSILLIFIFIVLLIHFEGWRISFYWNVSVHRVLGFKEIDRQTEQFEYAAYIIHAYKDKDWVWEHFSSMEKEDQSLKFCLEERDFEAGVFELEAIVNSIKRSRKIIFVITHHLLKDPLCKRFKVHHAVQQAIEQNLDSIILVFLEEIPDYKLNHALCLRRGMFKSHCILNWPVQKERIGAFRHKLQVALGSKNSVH", "assay": "Toll-Like Receptor (TLR) screening assay, TLR3", "format": "cell-based", "details": "10 μM"}, "[6]": {"biological_target": "human TLR 2 (Homo sapiens, UniProt O60603)", "sequence (O60603 21-784)": "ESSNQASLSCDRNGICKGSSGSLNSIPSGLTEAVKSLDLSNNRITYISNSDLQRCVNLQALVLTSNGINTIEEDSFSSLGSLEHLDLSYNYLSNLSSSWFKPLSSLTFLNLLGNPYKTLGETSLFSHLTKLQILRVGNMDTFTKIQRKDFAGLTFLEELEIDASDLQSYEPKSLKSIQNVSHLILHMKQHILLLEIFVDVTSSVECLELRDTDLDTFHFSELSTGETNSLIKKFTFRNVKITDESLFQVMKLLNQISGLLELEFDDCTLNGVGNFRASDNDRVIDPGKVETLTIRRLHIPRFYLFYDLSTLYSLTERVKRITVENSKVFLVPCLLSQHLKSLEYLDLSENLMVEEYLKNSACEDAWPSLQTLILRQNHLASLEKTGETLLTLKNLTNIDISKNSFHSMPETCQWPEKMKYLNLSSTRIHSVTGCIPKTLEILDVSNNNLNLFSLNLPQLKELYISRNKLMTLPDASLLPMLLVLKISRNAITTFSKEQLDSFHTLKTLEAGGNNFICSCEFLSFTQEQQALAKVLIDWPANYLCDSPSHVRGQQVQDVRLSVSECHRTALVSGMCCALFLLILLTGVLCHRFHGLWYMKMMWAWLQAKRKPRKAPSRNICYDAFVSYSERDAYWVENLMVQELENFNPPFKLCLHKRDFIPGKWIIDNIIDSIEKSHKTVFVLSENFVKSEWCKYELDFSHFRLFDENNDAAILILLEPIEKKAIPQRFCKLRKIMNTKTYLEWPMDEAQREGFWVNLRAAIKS", "assay": "Toll-Like Receptor (TLR) screening assay, TLR2", "format": "cell-based", "details": "10 μM; control HKLM"}},
  "data": [
    {"smiles": "CCCCCCCCCCCCCCCC(=O)NCCCC[C@@H](N)C(=O)NCCCNCCCCNCCCN", "note": "[AMXT 1501, D-Lys(C16acyl)-Spm]", "values": [
      {"measurement": "anti-tumor response to single agent", "setting": "[1]; agent alone", "value": "did not reduce tumor growth"},
      {"measurement": "potency to inhibit tumor growth in combination with DFMO, AMXT 1501 versus AMXT 1569", "setting": "[1]; combined with DFMO", "value": "slightly better results"},
      {"measurement": "stimulatory effect on TLR4", "setting": "[2]", "value": "16 % of control"},
      {"measurement": "activity on TLR7", "setting": "[3]", "value": "no significant activity"},
      {"measurement": "stimulatory effect on human toll-like receptors", "setting": "[4]", "value": "no significant stimulatory effect"},
      {"measurement": "activity on TLR3", "setting": "[5]", "value": "no significant activity"},
      {"measurement": "stimulatory effect on TLR2", "setting": "[6]", "value": "19 % of control"}
    ]}
  ]
}
